≈ marks a conversion by molar mass, not a printed value. Read-outs that look alike come from different tables or passages of the source.
Columns and labels:
aminopeptidase M = aminopeptidase M (Homo sapiens, UniProt P15144); experiment: Detector peptide as enzyme substrate, aminopeptidase M; type: biochemical
Text: (§1) The compounds of formula I or IA in which W is a C1-6 -alkylthio, a functionalized C1-6 -alkylthio for example a C1-6 -aminoalkylthio or a phenylthio as defined above by formula II are of particular utility for detecting protease/peptidase activity in biological systems. For example, the compounds are more sensitive chromogenic detectors of protease activity in biological liquids, such as serum, than is leucine p-nitroanilide. This utility depends on the release, by protease action, of the mercaptan, H-S-R^2, which is assayed quantitatively by colorimetry using Ellman's reagent as described in the examples.

leucine aminopeptidase = leucine aminopeptidase (Sus scrofa, UniProt P28839); experiment: Detector peptide as enzyme substrate, leucine aminopeptidase; type: biochemical
Sequence of leucine aminopeptidase (P28839 whole entry): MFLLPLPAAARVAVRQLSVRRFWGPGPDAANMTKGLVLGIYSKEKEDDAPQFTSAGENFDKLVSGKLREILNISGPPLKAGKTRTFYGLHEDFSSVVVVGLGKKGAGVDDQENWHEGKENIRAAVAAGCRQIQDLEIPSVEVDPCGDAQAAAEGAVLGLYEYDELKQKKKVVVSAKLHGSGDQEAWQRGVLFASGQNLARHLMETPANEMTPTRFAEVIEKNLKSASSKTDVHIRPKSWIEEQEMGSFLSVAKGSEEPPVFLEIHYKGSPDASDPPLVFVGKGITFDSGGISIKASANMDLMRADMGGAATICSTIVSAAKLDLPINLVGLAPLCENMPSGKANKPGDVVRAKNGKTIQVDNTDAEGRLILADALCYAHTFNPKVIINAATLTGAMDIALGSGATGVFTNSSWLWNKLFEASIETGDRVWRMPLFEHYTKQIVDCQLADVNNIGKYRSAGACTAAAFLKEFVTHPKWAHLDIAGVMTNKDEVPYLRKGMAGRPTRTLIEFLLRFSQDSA
Text: as §1

C. albicans = experiment: Minimum inhibitory concentration, two-fold broth dilution (Method/Test B); type: cell-based, Candida albicans
Description: (§2) B. Fungi [Minimum inhibitory […] (MIC)]:
(§3) The minimum inhibitory concentration of the test compound was determined by two-fold broth dilution tests in yeast carbon base medium, containing 200 μg/ml of sodium glutamate. The compounds were diluted from […] to 0.25 μg/ml and the test medium was inoculated with a suspension of C. albicans grown in the same medium for 15 hours at 37°. The final inoculum sizes in the tests we approximately 10^4 cfu/ml and 10^3 cfu/ml. The tubes were incubated at 37° for 24 and 48 hours and observed for inhibition.

Candida albicans = experiment: Disk diffusion method, fungi (Method/Test A); type: cell-based; conditions: for zone (Test A, disk diffusion; quantity not given): C. albicans B-311; for zone size: C. albicans
Description: (§4) A. Fungi (Disk diffusion method):
(§5) Candida albicans strains B-311 and BC 759, obtained from Smith Kline and French Laboratory Culture Collection were grown in a trypticase soy broth at 28° for 7 hours. The seeded plates, with this medium containing 1.5% agar, were prepared by inoculating 1 ml of the inoculum in 1 l. of yeast-carbon base medium, containing 200 μg/ml of lysine or glutamate as a sole source of nitrogen.

E. coli M. 2626 = experiment: Disk diffusion method, bacteria (Method C); type: cell-based; conditions: Escherichia coli
Text: C. Bacteria (Disk diffusion method): A method similar to A above but using E. coli was used which employs a M-9 medium (basic salts with ammonium ion as the nitrogen source and glucose as the carbon source).

trypsin = target: T1, trypsin (Bos taurus, UniProt P00760); experiment: Detector peptide as enzyme substrate, trypsin; type: biochemical
T1 construct: gene PRSS1
T1 sequence (P00760 24-246): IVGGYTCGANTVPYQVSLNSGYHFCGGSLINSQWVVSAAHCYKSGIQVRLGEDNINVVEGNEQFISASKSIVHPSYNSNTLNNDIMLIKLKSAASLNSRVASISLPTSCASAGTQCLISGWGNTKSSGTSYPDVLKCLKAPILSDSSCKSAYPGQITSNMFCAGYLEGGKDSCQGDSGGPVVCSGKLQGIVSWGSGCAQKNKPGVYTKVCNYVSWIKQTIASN
Text: as §1

[1] = tested on: representative fungal and bacterial organisms; experiment: Biological screen described in the utility example; type: cell-based; conditions: product found to be not completely deblocked
Description: A prototypal compound, L-alanyl-2-(5-fluorouracil-2-yl)-L-glycine, was evaluated against representative fungal and bacterial organisms.
as §4, §5, §2, §3
C. Bacteria (Disk diffusion method):
A method similar to A above but using E. coli was used which employs a M-9 medium (basic salts with ammonium ion as the nitrogen source and glucose as the carbon source).

Fasciola hepatica = conditions: mice, subcutaneously 15 mg/kg for eight days; compared with albendazole
Nematospiroides dubius = conditions: mice, subcutaneously 15 mg/kg for eight days; compared with albendazole
Caenorhabditis elegans = conditions: concentrations of 10 and 100 μg/ml
[2] = tested on: hog kidney leucine aminopeptidase; experiment: Enzyme catalyzed warhead release (Ellman reagent, 412 nm); type: biochemical; conditions: for λ(412) absorbance: enzyme added
Description: (§6) The release was maintained at a linear rate over the observation period (5 min). […] This observation is consistent with literature reports of the optimal pH necessary for the efficacy of this enzyme.
(§7) These observations were obtained by colorimetric assay, which involves the reaction between a free sulfhydryl group and 5,5'-dithio-bis(2-nitrobenzoic acid), the Ellman reagent, to produce a yellow color as follows: [drawing 12]
(§8) The peptide from Example 4 was dissolved in 4 mM of phosphate buffer solution (pH 7) containing in Ellman reagent at a level of 4 mg/ml to produce a 1 mM solution of the peptide. The resulting mixture was monitored using a spectrophotometer at a wavelength of 412 nm. To 1 ml of this solution was added 100 μg of hog kidney leucine aminopeptidase (Sigma) and the enzymatic hydrolysis was continuously monitored at 412 nm.
(§9) Reaction mixture contained 1 mM peptide, Ellman's reagent 4 mg/ml, phosphate buffer 4 mM (pH 7).

[3] = Stability in aqueous phosphate buffer, spontaneous warhead release (Ellman reagent, 412 nm); type: physicochemical; conditions: for λ(412) absorbance: before enzyme
Description: as §6, §7, §8, §9

[4] = tested on: hog kidney leucine aminopeptidase; experiment: Enzyme catalyzed warhead release (Ellman reagent, 412 nm); type: biochemical; conditions: pH 7.5

Sequence of aminopeptidase M (P15144 whole entry, species assumed): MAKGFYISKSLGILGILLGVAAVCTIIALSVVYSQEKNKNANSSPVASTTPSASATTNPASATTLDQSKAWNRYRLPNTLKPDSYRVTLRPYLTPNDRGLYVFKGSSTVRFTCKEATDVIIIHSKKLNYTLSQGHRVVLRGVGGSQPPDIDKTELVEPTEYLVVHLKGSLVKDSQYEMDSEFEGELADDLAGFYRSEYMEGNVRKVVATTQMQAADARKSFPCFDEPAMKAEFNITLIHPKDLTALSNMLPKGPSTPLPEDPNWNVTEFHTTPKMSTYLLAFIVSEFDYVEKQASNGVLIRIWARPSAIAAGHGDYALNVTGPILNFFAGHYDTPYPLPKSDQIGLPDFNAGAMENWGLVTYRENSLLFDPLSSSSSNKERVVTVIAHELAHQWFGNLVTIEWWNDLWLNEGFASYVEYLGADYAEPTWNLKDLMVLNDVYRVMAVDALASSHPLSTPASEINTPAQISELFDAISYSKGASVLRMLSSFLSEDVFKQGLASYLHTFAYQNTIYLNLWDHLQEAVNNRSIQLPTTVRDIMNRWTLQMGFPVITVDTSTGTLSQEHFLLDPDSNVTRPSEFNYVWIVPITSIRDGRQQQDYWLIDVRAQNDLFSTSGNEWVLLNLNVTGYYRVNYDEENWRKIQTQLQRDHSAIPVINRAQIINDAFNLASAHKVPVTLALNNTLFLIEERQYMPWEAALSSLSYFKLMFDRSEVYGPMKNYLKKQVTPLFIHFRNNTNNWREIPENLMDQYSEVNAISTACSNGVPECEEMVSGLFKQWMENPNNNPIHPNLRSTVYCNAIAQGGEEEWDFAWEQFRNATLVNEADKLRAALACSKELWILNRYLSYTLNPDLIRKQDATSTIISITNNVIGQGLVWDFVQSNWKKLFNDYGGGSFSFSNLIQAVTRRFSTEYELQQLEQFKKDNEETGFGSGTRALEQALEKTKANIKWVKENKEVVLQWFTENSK

## C[C@H](N)C(=O)NC(Sc1ccccc1)C(=O)O (stereo partly drawn) [L-alanyl-L-(α-phenylthio)glycine]
Aminopeptidase M
  use as enzyme substrate: successfully used as enzyme substrates
Leucine aminopeptidase
  use as enzyme substrate: successfully used as enzyme substrates

## C[C@H](N)C(=O)N[C@H](C(=O)O)n1cc(F)c(=O)[nH]c1=O [L-alanyl-2-(5-fluorouracil-1-yl)-L-glycine]
C. albicans; C. albicans B-310, 24 hours
  MIC: 12.5 µg/mL (≈ 45.6 µM)
C. albicans; C. albicans strain 3153A
  MIC: 12.5 µg/mL (≈ 45.6 µM)
C. albicans; C. albicans strain B 311
  MIC: 12.5 µg/mL (≈ 45.6 µM)
C. albicans; C. albicans strain BC 759
  MIC: 1.6 µg/mL (≈ 5.83 µM)
Candida albicans; Conc. 1.5 μg/desk
  zone (Test A, disk diffusion; quantity not given): 16 mm
Candida albicans; Conc. 3.0 μg/desk
  zone (Test A, disk diffusion; quantity not given): 20 mm
Candida albicans; Conc. 6.0 μg/desk
  zone (Test A, disk diffusion; quantity not given): 22 mm
Candida albicans; Conc. 12.5 μg/desk
  zone (Test A, disk diffusion; quantity not given): 26 mm
Candida albicans; Conc. 25 μg/desk
  zone (Test A, disk diffusion; quantity not given): 30 mm
Candida albicans; 62 μg/ml
  zone size: 16 mm
Candida albicans; 125 μg/ml
  zone size: 20 mm
Candida albicans; 250 μg/ml
  zone size: 22 mm
Candida albicans; 500 μg/ml
  zone size: 26 mm
Candida albicans; 1000 μg/ml
  zone size: 30 mm

## C[C@H](N)C(=O)NC(C(=O)O)n1cc(F)c(=O)[nH]c1=O (mixture of isomers) [Example 2, L-alanyl-2-(5-fluorouracil-1-yl)-D,L-glycine]
C. albicans; C. albicans strain 3153A, listed as L-DL
  MIC: 25 µg/mL
C. albicans; C. albicans strain B 311, listed as L-DL
  MIC: 25 µg/mL
C. albicans; C. albicans strain BC 759, listed as L-DL
  MIC: 6.3 µg/mL
Candida albicans; Conc. 1.5 μg/desk, listed as L-DL
  zone (Test A, disk diffusion; quantity not given): 12 mm
Candida albicans; Conc. 3.0 μg/desk, listed as L-DL
  zone (Test A, disk diffusion; quantity not given): 18 mm
Candida albicans; Conc. 6.0 μg/desk, listed as L-DL
  zone (Test A, disk diffusion; quantity not given): 20 mm
Candida albicans; Conc. 12.5 μg/desk, listed as L-DL
  zone (Test A, disk diffusion; quantity not given): 20 mm
Candida albicans; Conc. 25 μg/desk, listed as L-DL
  zone (Test A, disk diffusion; quantity not given): 20 mm

## O=c1[nH]cc(F)c(=O)[nH]1 [Example 5-FU, 5-fluorouracil, reference compound]
E. coli M. 2626; conc. 1.5 μg/disk
  zone of inhibition at 1.5 µg/disc: 33 mm
E. coli M. 2626; conc. 3.0 μg/disk
  zone of inhibition at 3 µg/disc: 38 mm
E. coli M. 2626; conc. 6.0 μg/disk
  zone of inhibition at 6 µg/disc: 40 mm
E. coli M. 2626; conc. 12.5 μg/disk
  zone of inhibition at 12.5 µg/disc: 41 mm
E. coli M. 2626; conc. 25.0 μg/disk
  zone of inhibition at 25 µg/disc: 46 mm
C. albicans; Candida albicans, C. albicans strain 3153A, read-out: MIC
  MIC: 1 µg/mL (≈ 7.69 µM)
C. albicans; Candida albicans, C. albicans strain B 311, read-out: MIC
  MIC: 4 µg/mL (≈ 30.8 µM)
C. albicans; Candida albicans, C. albicans strain BC 759, read-out: MIC
  MIC: 1 µg/mL (≈ 7.69 µM)
Candida albicans; Conc. 1.5 μg/desk
  zone (Test A, disk diffusion; quantity not given): 22 mm
Candida albicans; Conc. 3.0 μg/desk
  zone (Test A, disk diffusion; quantity not given): 30 mm
Candida albicans; Conc. 6.0 μg/desk
  zone (Test A, disk diffusion; quantity not given): 30 mm
Candida albicans; Conc. 12.5 μg/desk
  zone (Test A, disk diffusion; quantity not given): 40 mm
Candida albicans; Conc. 25 μg/desk
  zone (Test A, disk diffusion; quantity not given): 44 mm

## C[C@H](N)C(=O)NC(C(=O)O)n1cc(F)c(=O)[nH]c1=O (stereo partly drawn) [L-alanyl-2-(5-fluorouracil-1-yl)-D-glycine]
C. albicans; C. albicans B-310, 24 hours
  MIC: > 200 µg/mL
C. albicans; C. albicans strain 3153A, listed as L-D
  MIC: > 100 µg/mL
C. albicans; C. albicans strain B 311, listed as L-D
  MIC: > 100 µg/mL
C. albicans; C. albicans strain BC 759, listed as L-D
  MIC: > 100 µg/mL
Candida albicans; Conc. 1.5 μg/desk, listed as L,D
  zone (Test A, disk diffusion; quantity not given): 0 mm
Candida albicans; Conc. 3.0 μg/desk, listed as L,D
  zone (Test A, disk diffusion; quantity not given): 0 mm
Candida albicans; Conc. 6.0 μg/desk, listed as L,D
  zone (Test A, disk diffusion; quantity not given): 0 mm
Candida albicans; Conc. 12.5 μg/desk, listed as L,D
  zone (Test A, disk diffusion; quantity not given): 0 mm
Candida albicans; Conc. 25 μg/desk, listed as L,D
  zone (Test A, disk diffusion; quantity not given): 0 mm
Candida albicans; 62 μg/ml
  zone size: 0 mm
Candida albicans; 125 μg/ml
  zone size: 0 mm
Candida albicans; 250 μg/ml
  zone size: 0 mm
Candida albicans; 500 μg/ml
  zone size: 0 mm
Candida albicans; 1000 μg/ml
  zone size: 0 mm

## N-carbobenzoxy-L-alanyl-D,L-2-(3-aminopropylthio)-glycine, benzyl ester [Example 23]
trypsin
  substrate for trypsin: shown to be substrates

## C[C@H](N)C(=O)NC(NNS(=O)(=O)c1cc(C(=O)O)cc(C(=O)O)c1)C(=O)O (stereo partly drawn) [Example 12, L-alanyl-2-(3,5-dicarboxy-phenylsulfohydrazino)-D,L-glycine]
[1]
  activity in the biological screen: not active

## L-alanyl-2-(albendazole)-D,L-glycine [Example 22]
Fasciola hepatica
  antiparasitic activity: comparable to, or greater than, albendazole
Nematospiroides dubius
  antiparasitic activity: comparable to, or greater than, albendazole
Caenorhabditis elegans
  nematostatic activity: nematostatic activity was demonstrated

## L-alanyl-2-(2,6-dicarboxy-pyridyl-4-)-ethylthio-D,L-glycine [Example 4]
[2]; 1 mM peptide, phosphate buffer 4 mM pH 7, 100 μg leucine aminopeptidase
  Rate plus 100 μg enzyme (warhead release): 504 p moles per min
[2]; Time (sec) 3, 1 mM peptide, phosphate buffer pH 7
  λ(412) absorbance: 0.109
[2]; Time (sec) 4
  λ(412) absorbance: 0.127
[2]; Time (sec) 5
  λ(412) absorbance: 0.142
[2]; Time (sec) 6
  λ(412) absorbance: 0.161
[2]; Time (sec) 7
  λ(412) absorbance: 0.180
[2]; Time (sec) 8
  λ(412) absorbance: 0.199
[2]; phosphate buffer pH 7.0, observation period 5 min
  warhead release upon addition of Leucine Aminopeptidase: the warhead was released
[3]; 1 mM peptide, phosphate buffer 4 mM pH 7, no enzyme
  Spontaneous Rate (warhead release): 65 p moles per min
[3]; 0.2 M phosphate buffer (pH 7.0)
  t 1/2 (stability): ~ 5000 min
[3]; Time (sec) 0, 1 mM peptide, Ellman's reagent 4 mg/ml, phosphate buffer 4 mM pH 7
  λ(412) absorbance: 0.090
[3]; Time (sec) 1, 1 mM peptide, phosphate buffer pH 7
  λ(412) absorbance: 0.093
[3]; Time (sec) 2, 1 mM peptide, phosphate buffer pH 7
  λ(412) absorbance: 0.095
[3]; pH 7.5, compared with pH 7.0
  non-enzymatic warhead release: no noticeable increase
[4]
  enzymatically catalyzed release rate relative to pH 7.0: twice the previous rate

— US4454065A, “Oligopeptide prodrugs” (SmithKline Beckman Corporation, priority 1983, dated 1984)
